pEC50, pIC50: −log10 of the molar value. Bounds are passed on as bounds.

Data on five compounds can be found in ChEMBL document CHEMBL3596138, “A double effect molecular switch leads to a novel potent negative allosteric modulator of metabotropic glutamate receptor 5” (Medchemcomm, 2014).

Experiment [1] has as its target Metabotropic glutamate receptor 5 (Rattus norvegicus, UniProt P31424). In words: Negative allosteric modulator activity at rat mGlu5 receptor expressed in HEK293 cells assessed as effect on quisqualate-induced inositol phosphate accumulation incubated for 30 mins by florescence assay. It is filed as functional, cell-based. The settings on record: for pIC50: read-out: IC50.

Experiment [2] deals with Metabotropic glutamate receptor 4 (Rattus norvegicus, UniProt P31423). In words: Positive allosteric modulator activity at rat mGlu4 receptor expressed in HEK293 cells assessed as effect on L-AP4-induced inositol phosphate accumulation incubated for 30 mins by florescence assay. It is filed as functional, cell-based.
Metabotropic glutamate receptor 4, sequence (P31423 whole entry): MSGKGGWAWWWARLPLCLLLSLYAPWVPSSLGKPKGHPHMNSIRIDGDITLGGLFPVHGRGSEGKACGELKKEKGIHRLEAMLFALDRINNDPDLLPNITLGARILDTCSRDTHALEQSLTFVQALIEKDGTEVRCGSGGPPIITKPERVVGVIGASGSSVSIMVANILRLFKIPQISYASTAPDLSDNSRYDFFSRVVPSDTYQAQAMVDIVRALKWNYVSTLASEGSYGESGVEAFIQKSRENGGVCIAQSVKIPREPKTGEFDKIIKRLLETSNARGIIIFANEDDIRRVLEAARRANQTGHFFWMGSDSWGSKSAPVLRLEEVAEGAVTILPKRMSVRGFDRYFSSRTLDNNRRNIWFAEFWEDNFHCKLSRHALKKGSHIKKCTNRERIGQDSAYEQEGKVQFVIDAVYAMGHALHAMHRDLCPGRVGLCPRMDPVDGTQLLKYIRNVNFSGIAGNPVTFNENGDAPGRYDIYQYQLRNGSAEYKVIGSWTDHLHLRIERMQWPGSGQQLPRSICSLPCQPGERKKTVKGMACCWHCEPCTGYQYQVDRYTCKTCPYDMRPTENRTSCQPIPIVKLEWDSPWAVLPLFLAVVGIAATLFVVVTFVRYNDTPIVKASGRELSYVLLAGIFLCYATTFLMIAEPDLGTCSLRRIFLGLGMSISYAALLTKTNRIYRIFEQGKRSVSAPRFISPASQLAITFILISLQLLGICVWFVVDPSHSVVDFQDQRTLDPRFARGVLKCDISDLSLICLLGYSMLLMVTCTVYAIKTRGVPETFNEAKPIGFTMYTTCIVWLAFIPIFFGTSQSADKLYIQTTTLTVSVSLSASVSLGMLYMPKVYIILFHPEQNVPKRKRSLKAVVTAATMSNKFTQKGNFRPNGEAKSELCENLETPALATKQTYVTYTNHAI
Experiment [3] deals with Metabotropic glutamate receptor 5 (Rattus norvegicus) (UniProt P31424). As to the kind of experiment: Potency index, ratio of IC50 for MPEP to IC50 for test compound for negative allosteric modulator activity at rat mGlu5 receptor expressed in HEK293 cells. It is filed as cell-based.
Metabotropic glutamate receptor 5 (Rattus norvegicus), sequence (P31424 21-1203 limits assumed): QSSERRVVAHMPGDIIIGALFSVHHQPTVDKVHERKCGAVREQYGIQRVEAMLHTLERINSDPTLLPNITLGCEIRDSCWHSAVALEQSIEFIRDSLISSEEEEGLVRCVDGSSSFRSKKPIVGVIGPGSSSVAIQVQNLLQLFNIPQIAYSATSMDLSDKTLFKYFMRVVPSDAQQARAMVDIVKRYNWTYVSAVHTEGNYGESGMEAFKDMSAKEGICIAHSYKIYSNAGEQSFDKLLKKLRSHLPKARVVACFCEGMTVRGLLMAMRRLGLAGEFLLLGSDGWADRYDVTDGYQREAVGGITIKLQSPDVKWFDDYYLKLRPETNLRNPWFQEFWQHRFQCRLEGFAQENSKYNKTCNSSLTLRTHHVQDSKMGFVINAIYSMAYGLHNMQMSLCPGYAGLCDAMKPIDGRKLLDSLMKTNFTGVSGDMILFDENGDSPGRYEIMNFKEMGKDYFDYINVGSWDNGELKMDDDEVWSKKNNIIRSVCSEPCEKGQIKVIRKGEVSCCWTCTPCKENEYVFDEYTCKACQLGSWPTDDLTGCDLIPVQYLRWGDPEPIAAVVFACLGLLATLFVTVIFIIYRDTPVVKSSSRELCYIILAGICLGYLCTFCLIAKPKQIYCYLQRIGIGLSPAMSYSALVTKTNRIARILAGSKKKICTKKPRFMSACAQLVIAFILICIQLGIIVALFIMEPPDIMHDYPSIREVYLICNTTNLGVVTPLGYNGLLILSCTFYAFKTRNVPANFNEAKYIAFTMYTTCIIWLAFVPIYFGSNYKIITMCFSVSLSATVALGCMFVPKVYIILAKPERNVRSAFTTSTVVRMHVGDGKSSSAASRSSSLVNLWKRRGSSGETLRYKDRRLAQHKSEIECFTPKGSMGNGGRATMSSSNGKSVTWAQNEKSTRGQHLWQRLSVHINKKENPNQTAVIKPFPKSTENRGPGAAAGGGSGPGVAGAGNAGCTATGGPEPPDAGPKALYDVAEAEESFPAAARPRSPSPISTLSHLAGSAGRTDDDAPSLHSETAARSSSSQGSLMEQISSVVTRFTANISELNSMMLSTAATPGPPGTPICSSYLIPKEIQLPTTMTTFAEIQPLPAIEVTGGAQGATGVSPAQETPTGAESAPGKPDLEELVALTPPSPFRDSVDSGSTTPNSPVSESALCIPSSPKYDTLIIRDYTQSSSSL
Experiment [4] deals with Metabotropic glutamate receptor 4 (Rattus norvegicus) (UniProt P31423). Conditions: HEK293; call rule not given here.
Metabotropic glutamate receptor 4 (Rattus norvegicus), sequence (P31423 whole entry): as the sequence (P31423 whole entry) above
The target of experiment [5] is Metabotropic glutamate receptor 5 (Rattus norvegicus) (UniProt P31424). The settings on record: HEK293.
Description: Agonist activity at rat mGlu5 receptor expressed in HEK293 cells by inositol phosphate accumulation assay

Metabotropic glutamate receptor 5, sequence (P31424 whole entry): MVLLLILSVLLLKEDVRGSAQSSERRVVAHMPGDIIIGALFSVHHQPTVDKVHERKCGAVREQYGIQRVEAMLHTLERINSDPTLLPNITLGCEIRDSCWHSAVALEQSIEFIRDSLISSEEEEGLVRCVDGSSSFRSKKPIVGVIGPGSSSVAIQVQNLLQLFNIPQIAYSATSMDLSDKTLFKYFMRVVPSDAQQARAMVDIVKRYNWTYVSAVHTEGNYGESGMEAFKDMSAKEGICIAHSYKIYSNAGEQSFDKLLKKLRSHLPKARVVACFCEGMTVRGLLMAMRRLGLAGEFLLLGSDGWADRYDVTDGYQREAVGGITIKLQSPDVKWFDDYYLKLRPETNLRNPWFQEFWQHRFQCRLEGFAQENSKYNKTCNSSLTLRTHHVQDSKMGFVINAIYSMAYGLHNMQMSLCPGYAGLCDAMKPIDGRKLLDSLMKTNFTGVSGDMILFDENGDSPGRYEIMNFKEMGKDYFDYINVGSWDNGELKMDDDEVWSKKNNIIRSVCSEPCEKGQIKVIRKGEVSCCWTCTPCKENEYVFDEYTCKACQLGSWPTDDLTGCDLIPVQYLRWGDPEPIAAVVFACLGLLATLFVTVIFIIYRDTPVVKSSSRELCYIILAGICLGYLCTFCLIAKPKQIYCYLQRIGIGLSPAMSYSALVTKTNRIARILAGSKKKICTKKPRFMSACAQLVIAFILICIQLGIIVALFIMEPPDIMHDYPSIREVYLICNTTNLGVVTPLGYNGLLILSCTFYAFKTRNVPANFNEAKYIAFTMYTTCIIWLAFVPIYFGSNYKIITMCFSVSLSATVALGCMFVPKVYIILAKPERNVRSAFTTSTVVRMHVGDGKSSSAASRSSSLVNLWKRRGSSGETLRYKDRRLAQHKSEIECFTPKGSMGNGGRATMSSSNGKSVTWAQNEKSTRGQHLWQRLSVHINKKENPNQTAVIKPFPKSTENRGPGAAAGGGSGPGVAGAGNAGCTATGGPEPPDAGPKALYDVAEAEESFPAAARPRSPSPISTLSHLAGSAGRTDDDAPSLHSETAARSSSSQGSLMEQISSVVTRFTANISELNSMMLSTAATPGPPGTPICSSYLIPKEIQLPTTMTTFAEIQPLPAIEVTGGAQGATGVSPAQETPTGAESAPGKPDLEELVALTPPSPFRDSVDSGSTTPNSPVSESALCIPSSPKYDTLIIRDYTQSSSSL

In general, pIC50 refers to the IC50 on a negative log10 scale, so that one unit is a factor of ten. The term pEC50 denotes the negative decadic logarithm of the EC50, by convention in mol/L. For `COc1cc(C#Cc2ccccn2)ccc1NC(=O)c1ccccc1Cl`, the pIC50 in experiment [1] was 7.62. In experiment [2], the pEC50 was below 4.52. Also, the Ratio IC50 in experiment [3] came to 4.
The EC10 is the point of the concentration-response curve where the effect stands at 10%. A higher EC10 goes with weaker potency. In experiment [4], `N[C@@H](CCP(=O)(O)O)C(=O)O` showed an EC10 of 10 nM.
As to `COc1cc(NC(=O)c2ccccn2)ccc1NC(=O)c1ccccc1Cl`, the pIC50 in experiment [1] is below 4.52. For the same compound, the pEC50 in experiment [2] was 6.98.
As to `COc1cc(NC(=O)c2ccccn2)ccc1C#Cc1ccccc1Cl`, the IC50 result in experiment [1] (hek293) was “Not Active”. Also, the pEC50 in experiment [2] was 5.39.
Broadly, the EC80 is the concentration needed for an effect of 80%. `N[C@@H](Cn1oc(=O)[nH]c1=O)C(=O)O` registered an EC80 in experiment [5] of 100 nM.
